The source of these data is patent US10890557B2, “Electrochemical biosensor” (I-SENS, INC., priority 2014, dated 2021).

Series [1] can be described thus: Stability test: UV-visible spectrum change over time in aqueous solution. The class given is physicochemical.
Procedure: Specifically, the UV-visible spectrum of an aqueous solution of 1 mg of each osmium complex, ruthenium hexamine, and Ferricyanide dissolved in 1 mL of 0.1 M PBS (pH 7.4) was measured and stored at room temperature for 11 days.
On series [2], the source says: In subsequent examples, an osmium complex sodium salt was used by substituting the osmium complex with NaOH at 1:3 equivalent ratios.
The test system of series [3] is FAD-glucose dehydrogenase (FAD-GDH). Format: biochemical. Particulars: pH 7.4. Here is the method:
To verify the electrochemical properties of osmium complex, cyclic voltammetry was performed. Using a carbon electrode as the working electrode, platinum as the auxiliary electrode, and an Ag/AgCl (sat. KCl) electrode as a reference electrode, the current was measured by changing the glucose concentration in a mixed solution including FAD-glucose dehydrogenase (FAD-GDH) 10 mg/mL, osmium complex 30 mmol and 0.1 M PBS (pH 7.4).

On to `N.N.N.N.N.N.[Cl-].[Cl-].[Cl-].[Ru+3]` [ruthenium hexamine, Hexamine ruthenium chloride [Ru(NH3)6Cl3], reference compound], for which the “UV-visible spectrum change over time” value in series [1] (1 mg in 1 mL 0.1 M PBS (pH 7.4), room temperature, 11 days) is “no change in the UV-visible spectrum was observed over time”.
Regarding Os(dcbpy)2Cl2 [osmium complex], the solubility in water result in series [2] is “low solubility in water”. The response slope in series [3] is on record as 77.1 nA/(mg/dL). Also, the “UV-visible spectrum change over time” value in series [1] (pH 7.4) is “the absorbance of absorption peaks at 400 nm and 520 mm decreased with time”.
